Measured values: patent US20220213047A1, “CARBONIC ANHYDRASE INHIBITORS FOR TREATMENT OF NEISSERIA GONORRHOEAE INFECTION” (Purdue Research Foundation, priority 2021, published 2022)
≈ marks a conversion by molar mass, not a printed value. Entries after “also recorded” stand apart in the source; their conditions may differ. Like-named read-outs stand apart in the source and are kept apart here.

Columns and labels:
L. johnsonii = test: MIC50 against pathogenic and commensal bacteria: L. johnsonii; type: cell-based; conditions: Lactobacillus johnsonii; L. johnsonii (1 strain); normal
Source text: (§1) We have shown that CAIs display a narrow-spectrum of activity (Table 6). We have previously shown that CAIs have potential as anti-enterococcal agents for decolonization of the gut and treating systemic vancomycin-resistant enterococci (VRE) infections without affecting commensal strains common in the human microbiome or other pathogenic bacteria. […] The extremely narrow spectrum of this class of inhibitors would be a positive for clinical use as the molecules: 1) would not have deleterious effects on normal microbiota, and 2) would have less opportunity for resistance to arise to other important pathogenic strains aside from VRE.

L. crispatus = test: MIC50 against pathogenic and commensal bacteria: L. crispatus; type: cell-based; conditions: Lactobacillus crispatus; L. crispatus (2 strains); normal
Source text: as §1

E. coli = test: MIC50 against pathogenic and commensal bacteria: E. coli; type: cell-based; conditions: Escherichia coli; E. coli (8 strains); normal
Source text: as §1

N. gonorrhoeae [1] = test: Multi-step resistance selection; type: cell-based; conditions: over ten passages
Source text: Frequency of mutation—multi-step mutation—We investigated N. gonorrhoeae's ability to develop resistance to CAIs using the multi-step resistance selection experiment^58.
N. gonorrhoeae cultures that grew at the highest concentrations of the compound are used as an inoculum for the subsequent culture.

Lactobacillus sp = test: MIC50 against pathogenic and commensal bacteria: Lactobacillus sp; type: cell-based; conditions: Lactobacillus sp (12 strains); normal
Source text: as §1

S. epidermidis = test: MIC50 against pathogenic and commensal bacteria: S. epidermidis; type: cell-based; conditions: Staphylococcus epidermidis; S. epidermidis (3 strains); normal
Source text: as §1

N. gonorrhoeae [2] = test: MIC by agar dilution on a larger panel of N. gonorrhoeae strains; type: cell-based, Neisseria gonorrhoeae; conditions: for MIC: Neisseria gonorrhoeae, read-out: MIC
Protocol: These tests were performed in normal culture conditions with standard CO2 levels and in CO2 (5% in incubator) conditions.

`CCOc1ccc2nc(S(N)(=O)=O)sc2c1` [Ethoxzolamide] was tested, and the MIC50 (L. johnsonii) was greater than 256 µg/mL, the MIC50 (L. crispatus) was greater than 256 µg/mL and the MIC50 (E. coli) was greater than 256 µg/mL. For the same compound, the “increase in MIC” value (N. gonorrhoeae [1]) was “no increase”, the MIC50 (Lactobacillus sp) was greater than 256 µg/mL and the MIC50 (S. epidermidis) was greater than 256 µg/mL. The “activity against N. gonorrhoeae under CO2 conditions” value (N. gonorrhoeae [2]; CO2 conditions versus standard conditions, listed as EZM) was “did not maintain any activity; also recorded: significant reduction of activity”, the MIC (N. gonorrhoeae [2]; N. gonorrhoeae 165, CO2 (5% CO2 containing air)) was greater than 128 µg/mL and the MIC (N. gonorrhoeae [2]; N. gonorrhoeae 166, CO2 (5% CO2 containing air)) was greater than 128 µg/mL. For the same compound, the MIC (N. gonorrhoeae [2]; N. gonorrhoeae 166, Non CO2 (ambient air)) was 0.06 µg/mL (≈ 0.232 µM), the MIC (N. gonorrhoeae [2]; N. gonorrhoeae 167, CO2 (5% CO2 containing air)) was 64 µg/mL (≈ 248 µM) and the MIC (N. gonorrhoeae [2]; N. gonorrhoeae 167, Non CO2 (ambient air)) was 0.25 µg/mL (≈ 0.968 µM). For the same compound, the MIC (N. gonorrhoeae [2]; N. gonorrhoeae 170, CO2 (5% CO2 containing air)) was greater than 128 µg/mL, the MIC (N. gonorrhoeae [2]; N. gonorrhoeae 170, Non CO2 (ambient air)) was 0.06 µg/mL (≈ 0.232 µM) and the MIC (N. gonorrhoeae [2]; N. gonorrhoeae 171, CO2 (5% CO2 containing air)) was 64 µg/mL (≈ 248 µM). For the same compound, the MIC (N. gonorrhoeae [2]; N. gonorrhoeae 173, CO2 (5% CO2 containing air)) was 128 µg/mL (≈ 496 µM), the MIC (N. gonorrhoeae [2]; N. gonorrhoeae 174, CO2 (5% CO2 containing air)) was greater than 128 µg/mL and the MIC (N. gonorrhoeae [2]; N. gonorrhoeae 175, CO2 (5% CO2 containing air)) was greater than 128 µg/mL. It also gave an MIC (N. gonorrhoeae [2]; N. gonorrhoeae 175, Non CO2 (ambient air)) of 0.25 µg/mL (≈ 0.968 µM), an MIC (N. gonorrhoeae [2]; N. gonorrhoeae 176, CO2 (5% CO2 containing air)) of 128 µg/mL (≈ 496 µM) and an MIC (N. gonorrhoeae [2]; N. gonorrhoeae 176, Non CO2 (ambient air)) of 0.25 µg/mL (≈ 0.968 µM). For the same compound, the MIC (N. gonorrhoeae [2]; N. gonorrhoeae 177, CO2 (5% CO2 containing air)) was 16 µg/mL (≈ 61.9 µM), the MIC (N. gonorrhoeae [2]; N. gonorrhoeae 177, Non CO2 (ambient air)) was 0.5 µg/mL (≈ 1.94 µM) and the MIC (N. gonorrhoeae [2]; N. gonorrhoeae 178, CO2 (5% CO2 containing air)) was greater than 128 µg/mL. It also gave an MIC (N. gonorrhoeae [2]; N. gonorrhoeae 178, Non CO2 (ambient air)) of 0.06 µg/mL (≈ 0.232 µM), an MIC (N. gonorrhoeae [2]; N. gonorrhoeae 179, CO2 (5% CO2 containing air)) greater than 128 µg/mL and an MIC (N. gonorrhoeae [2]; N. gonorrhoeae 179, Non CO2 (ambient air)) of 0.25 µg/mL (≈ 0.968 µM). It also gave an MIC (N. gonorrhoeae [2]; N. gonorrhoeae 180, CO2 (5% CO2 containing air)) greater than 128 µg/mL, an MIC (N. gonorrhoeae [2]; N. gonorrhoeae 181, CO2 (5% CO2 containing air)) of 64 µg/mL (≈ 248 µM) and an MIC (N. gonorrhoeae [2]; N. gonorrhoeae 181, Non CO2 (ambient air)) of 0.25 µg/mL (≈ 0.968 µM). For the same compound, the MIC (N. gonorrhoeae [2]; N. gonorrhoeae 182, CO2 (5% CO2 containing air)) was 64 µg/mL (≈ 248 µM), the MIC (N. gonorrhoeae [2]; N. gonorrhoeae 182, Non CO2 (ambient air)) was 0.25 µg/mL (≈ 0.968 µM) and the MIC (N. gonorrhoeae [2]; N. gonorrhoeae 183, CO2 (5% CO2 containing air)) was 32 µg/mL (≈ 124 µM). For the same compound, the MIC (N. gonorrhoeae [2]; N. gonorrhoeae 184, CO2 (5% CO2 containing air)) was 32 µg/mL (≈ 124 µM), the MIC (N. gonorrhoeae [2]; N. gonorrhoeae 184, Non CO2 (ambient air)) was 0.25 µg/mL (≈ 0.968 µM) and the MIC (N. gonorrhoeae [2]; N. gonorrhoeae 185, CO2 (5% CO2 containing air)) was 64 µg/mL (≈ 248 µM). It also gave an MIC (N. gonorrhoeae [2]; N. gonorrhoeae 186, CO2 (5% CO2 containing air)) of 64 µg/mL (≈ 248 µM), an MIC (N. gonorrhoeae [2]; N. gonorrhoeae 188, CO2 (5% CO2 containing air)) of 64 µg/mL (≈ 248 µM) and an MIC (N. gonorrhoeae [2]; N. gonorrhoeae 188, Non CO2 (ambient air)) of 0.06 µg/mL (≈ 0.232 µM). It also gave an MIC (N. gonorrhoeae [2]; N. gonorrhoeae 191, CO2 (5% CO2 containing air)) greater than 128 µg/mL, an MIC (N. gonorrhoeae [2]; N. gonorrhoeae 191, Non CO2 (ambient air)) of 0.06 µg/mL (≈ 0.232 µM) and an MIC (N. gonorrhoeae [2]; N. gonorrhoeae 193, CO2 (5% CO2 containing air)) of 64 µg/mL (≈ 248 µM). For the same compound, the MIC (N. gonorrhoeae [2]; N. gonorrhoeae 194, CO2 (5% CO2 containing air)) was 64 µg/mL (≈ 248 µM) and the MIC (N. gonorrhoeae [2]; N. gonorrhoeae 194, Non CO2 (ambient air)) was 0.25 µg/mL (≈ 0.968 µM).
